Laboratory results as given in US12257243B2, “5-hydroxy-7-oxabicyclo[2.2.1]heptane-2-carboxamide derivatives for inducing chondrogenesis for treating joint damage” (NOVARTIS AG, priority 2018, dated 2025).
Read-outs that look alike come from different tables or passages of the source.

Test system: ALP in normal human articular chondrocytes (NHACs)
Assay: Alkaline Phosphatase (ALP) activity assay (staining and quantitation) in NHACs, prevention of chondrocyte hypertrophy
Type: cell-based
Conditions: human IL-1 beta 10 ng/mL, 12 days; for IC50: Fast Blue RR staining, high content imaging, read-out: ALP in NHAC IC50; for Emax / ALP in NHAC (% Efficacy): value in parentheses; for Emax: read-out: ALP in NHAC (% Efficacy)
Method in brief: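 Primary human articular chondrocytes plated at 7,500 cells/well in DMEM with 10% FBS alongside test compound, incubated 5 h at 37 °C, then given IL-1β (10 ng/mL final) for 12 days. Fixed cells stained for ALP with Fast Blue RR/naphthol AS-MX, Hoechst counterstain. Read by fluorescence imaging (561 nm) and/or high-content cell scoring.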

Structure (SMILES) | IC50 (Chondrocyte, 288 h) [µM] | Emax (Chondrocyte, 288 h) [%] | IC50 [µM] | ALP in NHAC (% Efficacy) [%]
Cc1cc(NC(=O)[C@@H]2[C@@H](c3cn(C(C)C)nc3C(F)(F)F)[C@H]3O[C@@H]2C[C@@H]3O)cc(C(F)(F)F)c1 (racemic) [Example 88, rac-(1R,2R,3S,4R,5S)-5-hydroxy-3-(1-isopropyl-3-(trifluoromethyl)-1H-pyrazol-4-yl)-N-(3-methyl-5-(trifluoromethyl)phenyl)-7-oxabicyclo[2.2.1]heptane-2-carboxamide] | > 30 | 20 | – | –
Cc1ccc(NC(=O)[C@@H]2[C@@H](c3cn(C(C)C)nc3C(F)(F)F)[C@H]3O[C@@H]2C[C@@H]3O)cc1C(F)(F)F (racemic) [Example 89, rac-(1R,2R,3S,4R,5S)-5-hydroxy-3-(1-isopropyl-3-trifluoromethyl)-1H-pyrazol-4-yl)-N-(4-methyl-3-(trifluoromethyl)phenyl)-7-oxabicyclo[2.2.1]heptane-2-carboxamide] | 19 | 40 | – | –
O=C(Nc1ccc(C(F)(F)F)c(Cl)n1)[C@@H]1[C@@H](c2cccc(C(F)(F)F)c2)[C@H]2O[C@@H]1C[C@@H]2O (single isomer, unassigned) [Example 25a, (1R,2R,3S,4R,5S)—N-(6-chloro-5-(trifluoromethyl)pyridin-2-yl)-5-hydroxy-3-(3-(trifluoromethyl)phenyl)-7-oxabicyclo[2.2.1]heptane-2-carboxamide or (1S,2S,3R,4S,5R)—N-(6-chloro-5-(trifluoromethylpyridin-2-yl)-5-hydroxy-3-(3-(trifluoromethyl)phenyl)-7-oxabicyclo[2.2.1]heptane-2-carboxamide] | – | – | 0.55 | 89
O=C(Nc1ccc(C(F)(F)F)c(Cl)n1)[C@@H]1[C@@H](c2cccc(C(F)(F)F)c2)[C@H]2O[C@@H]1C[C@@H]2O (single isomer, unassigned) [Example 25b, (1R,2R,3S,4R,5S)—N-(6-chloro-5-(trifluoromethyl)pyridin-2-yl)-5-hydroxy-3-(3-(trifluoromethyl)phenyl)-7-oxabicyclo[2.2.1]heptane-2-carboxamide or (1S,2S,3R,4S,5R)—N-(6-chloro-5-(trifluoromethylpyridin-2-yl)-5-hydroxy-3-(3-(trifluoromethyl)phenyl)-7-oxabicyclo[2.2.1]heptane-2-carboxamide] | – | – | 0.84 | 99
Cn1cc([C@H]2[C@H]3O[C@H](C[C@@H]3O)[C@@H]2C(=O)Nc2cccc(C(F)(F)F)c2)c(C(F)(F)F)n1 (single isomer, unassigned) [Example 32a, (1R,2R,3S,4R,5S)-5-hydroxy-3-(1-methyl-3-(trifluoromethyl)-1H-pyrazol-4-yl)-N-(3-(trifluoromethyl)phenyl)-7-oxabicyclo[2.2.1]heptane-2-carboxamide or (1S,2S,3R,4S,5R)-5-hydroxy-3-(1-methyl-3-(trifluoromethyl)-1H-pyrazol-4-yl)-N-(3-(trifluoromethyl)phenyl)-7-oxabicyclo[2.2.1]heptane-2-carboxamide] | – | – | 6.6 | 87
Cn1cc([C@H]2[C@H]3O[C@H](C[C@@H]3O)[C@@H]2C(=O)Nc2cccc(C(F)(F)F)c2)c(C(F)(F)F)n1 (single isomer, unassigned) [Example 32b, (1R,2R,3S,4R,5S)-5-hydroxy-3-(1-methyl-3-(trifluoromethyl)-1H-pyrazol-4-yl)-N-(3-(trifluoromethyl)phenyl)-7-oxabicyclo[2.2.1]heptane-2-carboxamide or (1S,2S,3R,4S,5R)-5-hydroxy-3-(1-methyl-3-(trifluoromethyl)-1H-pyrazol-4-yl)-N-(3-(trifluoromethyl)phenyl)-7-oxabicyclo[2.2.1]heptane-2-carboxamide] | – | – | 16 | 109
COc1ccc(C(F)(F)F)cc1NC(=O)[C@H]1[C@H](c2cn(C)nc2C(F)(F)F)[C@@H]2O[C@H]1C[C@H]2O (single isomer, unassigned) [Example 33a, (1R,2R,3S,4R,5S)-5-hydroxy-N-(2-methoxy-5-trifluoromethyl)phenyl)-3-(1-methyl-3-(trifluoromethyl)-1H-pyrazol-4-L)-7-oxabicyclo[2.2.1]heptane-2-carboxamide or (1S,2S,3R,4S,5R)-5-hydroxy-N-(2-methoxy-5-(trifluoromethyl)phenyl)-3-(1-methyl-3-(trifluoromethyl)-1H-pyrazol-4-L)-7-oxabicyclo[2.2.1]heptane-2-carboxamide] | – | – | 6.6 | 79
COc1ccc(C(F)(F)F)cc1NC(=O)[C@H]1[C@H](c2cn(C)nc2C(F)(F)F)[C@@H]2O[C@H]1C[C@H]2O (single isomer, unassigned) [Example 33b, (1R,2R,3S,4R,5S)-5-hydroxy-N-(2-methoxy-5-trifluoromethyl)phenyl)-3-(1-methyl-3-(trifluoromethyl)-1H-pyrazol-4-L)-7-oxabicyclo[2.2.1]heptane-2-carboxamide or (1S,2S,3R,4S,5R)-5-hydroxy-N-(2-methoxy-5-(trifluoromethyl)phenyl)-3-(1-methyl-3-(trifluoromethyl)-1H-pyrazol-4-L)-7-oxabicyclo[2.2.1]heptane-2-carboxamide] | – | – | 3.1 | 99
Cn1cc([C@H]2[C@H]3O[C@H](C[C@@H]3O)[C@@H]2C(=O)Nc2cc(C(F)(F)F)c(Cl)cn2)c(C(F)(F)F)n1 (single isomer, unassigned) [Example 36a, (1R 2R,3S,4R,5S)—N-(5-chloro-4-(trifluoromethyl)pyridin-2-yl)-5-hydroxy-3-(1-methyl-3-(trifluoromethyl)-1H-pyrazol-4-yl)-7-oxabicyclo[2.2.1]heptane-2-carboxamide or (1S,2S,3R,4S,5R)—N-(5-chloro-4-(trifluoromethyl)pyridin-2-yl)-5-hydroxy-3-(1-methyl-3-(trifluoromethyl)-1H-pyrazol-4-yl)-7-oxabicyclo[2.2.1]heptane-2-carboxamide] | – | – | 9.4 | 95
Cn1cc([C@H]2[C@H]3O[C@H](C[C@@H]3O)[C@@H]2C(=O)Nc2cc(C(F)(F)F)c(Cl)cn2)c(C(F)(F)F)n1 (single isomer, unassigned) [Example 36b, (1R 2R,3S,4R,5S)—N-(5-chloro-4-(trifluoromethyl)pyridin-2-yl)-5-hydroxy-3-(1-methyl-3-(trifluoromethyl)-1H-pyrazol-4-yl)-7-oxabicyclo[2.2.1]heptane-2-carboxamide or (1S,2S,3R,4S,5R)—N-(5-chloro-4-(trifluoromethyl)pyridin-2-yl)-5-hydroxy-3-(1-methyl-3-(trifluoromethyl)-1H-pyrazol-4-yl)-7-oxabicyclo[2.2.1]heptane-2-carboxamide] | – | – | 17 | 83
Cn1cc([C@H]2[C@H]3O[C@H](C[C@@H]3O)[C@@H]2C(=O)Nc2cc(C(F)(F)F)ccn2)c(C(F)(F)F)n1 (single isomer, unassigned) [Example 38a, (1R,2R,3S,4R,5S)-5-hydroxy-3-(1-methyl-3-(trifluoromethyl)-1H-pyrazol-4-yl)-N-(4-(trifluoromethyl)pyridin-2-yl)-7-oxabicyclo[2.2.1]heptane-2-carboxamide or (1S,2S,3R,4S,5R)-5-hydroxy-3-(1-methyl-3-(trifluoromethyl)-1H-pyrazol-4-yl)-N-(4-(trifluoromethyl)pyridin-2-yl)-7-oxabicyclo[2.2.1]heptane-2-carboxamide] | – | – | 5.9 | 81
Cn1cc([C@H]2[C@H]3O[C@H](C[C@@H]3O)[C@@H]2C(=O)Nc2cc(C(F)(F)F)ccn2)c(C(F)(F)F)n1 (single isomer, unassigned) [Example 38b, (1R,2R,3S,4R,5S)-5-hydroxy-3-(1-methyl-3-(trifluoromethyl)-1H-pyrazol-4-yl)-N-(4-(trifluoromethyl)pyridin-2-yl)-7-oxabicyclo[2.2.1]heptane-2-carboxamide or (1S,2S,3R,4S,5R)-5-hydroxy-3-(1-methyl-3-(trifluoromethyl)-1H-pyrazol-4-yl)-N-(4-(trifluoromethyl)pyridin-2-yl)-7-oxabicyclo[2.2.1]heptane-2-carboxamide] | – | – | > 30 | 27
N#Cc1ccc(C(F)(F)F)cc1NC(=O)[C@@H]1[C@@H](c2cccc(C(F)(F)F)c2)[C@H]2O[C@@H]1C[C@@H]2O (single isomer, unassigned) [Example 48a, (1R,2R,3S,4R,5S)—N-(2-cyano-5-(trifluoromethyl)phenyl)-5-hydroxy-3-(3-(trifluoromethyl)phenyl)-7-oxabicyclo[2.2.1]heptane-2-carboxamide or (1S,2S,3R,4S,5R)—N-(2-cyano-5-(trifluoromethyl)phenyl)-5-hydroxy-3-(3-(trifluoromethyl)phenyl)-7-oxabicyclo[2.2.1]heptane-2-carboxamide] | – | – | 1.5 | 109
N#Cc1ccc(C(F)(F)F)cc1NC(=O)[C@@H]1[C@@H](c2cccc(C(F)(F)F)c2)[C@H]2O[C@@H]1C[C@@H]2O (single isomer, unassigned) [Example 48b, (1R,2R,3S,4R,5S)—N-(2-cyano-5-(trifluoromethyl)phenyl)-5-hydroxy-3-(3-(trifluoromethyl)phenyl)-7-oxabicyclo[2.2.1]heptane-2-carboxamide or (1S,2S,3R,4S,5R)—N-(2-cyano-5-(trifluoromethyl)phenyl)-5-hydroxy-3-(3-(trifluoromethyl)phenyl)-7-oxabicyclo[2.2.1]heptane-2-carboxamide] | – | – | 1.9 | 98
